Earlier results on one compound are cited in patent publication US9555026B2, “Solid dispersion comprising amorphous cilostazol” (OTSUKA PHARMACEUTICAL CO., LTD., priority 2013, dated 2017).

For the series the following is noted: after meal versus fasting.

Each structure is given as a SMILES string.

`O=C1CCc2cc(OCCCCc3nnnn3C3CCCCC3)ccc2N1` [cilostazol, 6-[4-(1-cyclohexyl-1H-tetrazol-5-yl)butoxy]-3,4-dihydrocarbostyril]: the “AUC administered after meal, higher than that of fasting” value is recorded as 1.4 times and the “Cmax administered after meal, higher than that of fasting” value is on record as 2.3 times.
